What all share (type): functional
One test deals with P388/ADR. The experiment in a line: cells. The note with it: Mus musculus.
The next test deals with SN12K1. The experiment in a line: cells. The following applies: Homo sapiens.
The next test has as its system P388. Nature of the test: cells. The following applies: Mus musculus.
A further test deals with T1, Leucine aminopeptidase (Plasmodium falciparum 3D7, UniProt Q8IL11).
T1 sequence (Q8IL11 whole entry): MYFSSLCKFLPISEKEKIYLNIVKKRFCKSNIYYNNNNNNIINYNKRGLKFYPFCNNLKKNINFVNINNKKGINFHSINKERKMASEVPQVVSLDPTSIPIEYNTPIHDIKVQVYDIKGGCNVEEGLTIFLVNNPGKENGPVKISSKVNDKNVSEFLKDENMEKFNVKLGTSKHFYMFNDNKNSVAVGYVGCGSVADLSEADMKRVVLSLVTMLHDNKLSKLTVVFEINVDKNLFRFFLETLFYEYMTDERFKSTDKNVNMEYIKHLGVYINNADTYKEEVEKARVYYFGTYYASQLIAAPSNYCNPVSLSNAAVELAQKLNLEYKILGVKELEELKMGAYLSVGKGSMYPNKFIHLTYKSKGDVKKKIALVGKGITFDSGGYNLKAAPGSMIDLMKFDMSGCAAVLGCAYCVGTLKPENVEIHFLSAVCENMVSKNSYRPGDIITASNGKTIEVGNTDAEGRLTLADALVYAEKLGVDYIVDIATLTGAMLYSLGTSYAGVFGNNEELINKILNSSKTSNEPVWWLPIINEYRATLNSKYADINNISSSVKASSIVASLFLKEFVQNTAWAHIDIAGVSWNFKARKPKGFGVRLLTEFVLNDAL
Nature of the test: P. falciparum M17LAP inhibitors, primary screen, biochemical, fluorogenic H-Leu-NHMec substrate, 1536-well (AID 1619).

The target in test [1] is T2, Replicative DNA helicase DnaB (Mycobacterium tuberculosis, UniProt P9WMR3).
T2 sequence (P9WMR3 whole entry): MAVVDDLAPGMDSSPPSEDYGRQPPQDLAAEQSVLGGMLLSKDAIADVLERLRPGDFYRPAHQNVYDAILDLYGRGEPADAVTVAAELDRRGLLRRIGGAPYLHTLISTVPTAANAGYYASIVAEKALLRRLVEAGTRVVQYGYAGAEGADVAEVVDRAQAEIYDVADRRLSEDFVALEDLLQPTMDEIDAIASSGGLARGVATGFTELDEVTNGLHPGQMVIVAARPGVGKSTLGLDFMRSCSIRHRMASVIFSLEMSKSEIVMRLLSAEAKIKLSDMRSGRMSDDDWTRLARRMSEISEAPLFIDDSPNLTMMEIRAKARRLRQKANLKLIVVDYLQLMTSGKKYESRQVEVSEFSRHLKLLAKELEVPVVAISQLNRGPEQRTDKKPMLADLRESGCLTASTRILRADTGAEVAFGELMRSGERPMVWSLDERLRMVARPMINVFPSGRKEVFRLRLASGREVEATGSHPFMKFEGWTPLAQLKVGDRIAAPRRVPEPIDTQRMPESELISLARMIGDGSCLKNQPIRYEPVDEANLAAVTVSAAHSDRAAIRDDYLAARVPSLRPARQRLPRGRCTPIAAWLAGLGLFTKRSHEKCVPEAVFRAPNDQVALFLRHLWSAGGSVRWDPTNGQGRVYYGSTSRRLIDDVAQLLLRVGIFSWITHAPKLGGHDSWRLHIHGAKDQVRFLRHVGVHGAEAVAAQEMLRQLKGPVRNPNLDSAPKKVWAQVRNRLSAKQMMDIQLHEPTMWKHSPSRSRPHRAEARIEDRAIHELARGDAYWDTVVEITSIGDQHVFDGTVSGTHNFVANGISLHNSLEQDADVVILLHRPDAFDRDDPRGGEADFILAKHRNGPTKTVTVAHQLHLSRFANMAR
The experiment in a line: DnaB intein splicing inhibitors, dose response, biochemical, cell-free fluorescence (AID 449749).

In the next test the target is T3, Protein RecA (Mycobacterium tuberculosis, UniProt P9WHJ3).
T3 sequence (P9WHJ3 whole entry): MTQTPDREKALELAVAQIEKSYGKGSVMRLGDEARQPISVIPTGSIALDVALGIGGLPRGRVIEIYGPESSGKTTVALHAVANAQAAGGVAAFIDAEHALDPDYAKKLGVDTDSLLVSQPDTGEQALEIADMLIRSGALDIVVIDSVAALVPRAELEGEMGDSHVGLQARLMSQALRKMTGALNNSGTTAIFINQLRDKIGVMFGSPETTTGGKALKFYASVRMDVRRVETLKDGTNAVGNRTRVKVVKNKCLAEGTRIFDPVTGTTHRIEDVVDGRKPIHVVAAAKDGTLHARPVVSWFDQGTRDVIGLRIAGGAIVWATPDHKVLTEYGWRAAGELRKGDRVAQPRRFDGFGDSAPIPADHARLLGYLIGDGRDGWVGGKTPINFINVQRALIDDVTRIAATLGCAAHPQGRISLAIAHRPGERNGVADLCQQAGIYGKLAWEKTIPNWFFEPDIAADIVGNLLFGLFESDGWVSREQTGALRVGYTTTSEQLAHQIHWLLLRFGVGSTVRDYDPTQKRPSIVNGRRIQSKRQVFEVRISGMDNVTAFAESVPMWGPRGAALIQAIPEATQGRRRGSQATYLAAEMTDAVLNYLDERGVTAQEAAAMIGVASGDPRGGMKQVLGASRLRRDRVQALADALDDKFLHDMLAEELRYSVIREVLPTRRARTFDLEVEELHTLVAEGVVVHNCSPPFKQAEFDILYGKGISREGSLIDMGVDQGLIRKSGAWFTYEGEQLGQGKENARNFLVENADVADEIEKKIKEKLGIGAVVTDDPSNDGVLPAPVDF
Nature of the test: Fluorescence Cell-Free Homogeneous Dose Retest to Identify Inhibitors of RecA-Intein Splicing Activity. [Related pubchem assays (depositor defined):AID2097, AID2223, AID489010, AID492950].

For a further test, the target named is Genome polyprotein (dengue virus type 2, UniProt P29990). The experiment in a line: Dengue-2 NS5 methyltransferase inhibitors, primary screen, biochemical, confirmation dose response (AID 588689).
In test [2] the target is Induced myeloid leukemia cell differentiation protein Mcl-1 (Homo sapiens, UniProt Q07820).
A short description of test [3]: growth suppression of PTEN-null colon cells, dose response, cell-based, HCT116 PTEN knockout (AID 1047).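 Also: HCT116 colon tumor cells with PTEN knocked out; cells exposed to compound for 60 hours before readout; potency for loss of cell viability measured by luminescence.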
A short description of test [4]: growth suppression of beta-catenin-knockout colon cells, dose response, cell-based, HCT116, human colon tumor (AID 1045).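 Also: HCT116 colon tumor cells with beta catenin knocked out; cells exposed to compound for 60 hours.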
The target of test [5] is T4, DNA repair and recombination protein RAD54-like (Homo sapiens, UniProt Q92698).
T4 sequence (Q92698 whole entry): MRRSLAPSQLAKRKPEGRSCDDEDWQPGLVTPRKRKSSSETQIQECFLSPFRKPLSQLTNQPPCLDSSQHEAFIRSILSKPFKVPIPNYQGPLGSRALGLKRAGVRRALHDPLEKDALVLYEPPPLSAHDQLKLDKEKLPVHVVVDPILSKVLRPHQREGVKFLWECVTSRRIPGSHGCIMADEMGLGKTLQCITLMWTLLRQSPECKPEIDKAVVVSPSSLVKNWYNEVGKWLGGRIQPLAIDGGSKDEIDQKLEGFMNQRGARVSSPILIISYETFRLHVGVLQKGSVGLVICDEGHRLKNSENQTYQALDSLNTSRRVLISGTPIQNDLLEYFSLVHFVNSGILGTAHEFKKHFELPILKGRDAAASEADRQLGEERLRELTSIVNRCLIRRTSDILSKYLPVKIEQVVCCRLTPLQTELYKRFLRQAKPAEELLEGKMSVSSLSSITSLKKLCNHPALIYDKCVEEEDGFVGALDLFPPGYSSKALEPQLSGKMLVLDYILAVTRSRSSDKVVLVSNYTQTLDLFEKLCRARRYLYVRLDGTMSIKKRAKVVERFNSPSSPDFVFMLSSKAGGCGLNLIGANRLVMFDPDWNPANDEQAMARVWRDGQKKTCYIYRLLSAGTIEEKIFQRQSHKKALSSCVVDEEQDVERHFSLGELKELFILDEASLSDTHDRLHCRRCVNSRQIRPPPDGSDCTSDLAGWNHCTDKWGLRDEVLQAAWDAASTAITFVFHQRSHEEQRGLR
Nature of the test: inhibitors of human RAD54 branch migration, confirmation, biochemical, fluorescence, cherry-picked samples, dose series (AID 651657).

Test [6] has as its target T5, Short transient receptor potential channel 4 (Mus musculus, UniProt Q9QUQ5).
T5 sequence (Q9QUQ5 whole entry): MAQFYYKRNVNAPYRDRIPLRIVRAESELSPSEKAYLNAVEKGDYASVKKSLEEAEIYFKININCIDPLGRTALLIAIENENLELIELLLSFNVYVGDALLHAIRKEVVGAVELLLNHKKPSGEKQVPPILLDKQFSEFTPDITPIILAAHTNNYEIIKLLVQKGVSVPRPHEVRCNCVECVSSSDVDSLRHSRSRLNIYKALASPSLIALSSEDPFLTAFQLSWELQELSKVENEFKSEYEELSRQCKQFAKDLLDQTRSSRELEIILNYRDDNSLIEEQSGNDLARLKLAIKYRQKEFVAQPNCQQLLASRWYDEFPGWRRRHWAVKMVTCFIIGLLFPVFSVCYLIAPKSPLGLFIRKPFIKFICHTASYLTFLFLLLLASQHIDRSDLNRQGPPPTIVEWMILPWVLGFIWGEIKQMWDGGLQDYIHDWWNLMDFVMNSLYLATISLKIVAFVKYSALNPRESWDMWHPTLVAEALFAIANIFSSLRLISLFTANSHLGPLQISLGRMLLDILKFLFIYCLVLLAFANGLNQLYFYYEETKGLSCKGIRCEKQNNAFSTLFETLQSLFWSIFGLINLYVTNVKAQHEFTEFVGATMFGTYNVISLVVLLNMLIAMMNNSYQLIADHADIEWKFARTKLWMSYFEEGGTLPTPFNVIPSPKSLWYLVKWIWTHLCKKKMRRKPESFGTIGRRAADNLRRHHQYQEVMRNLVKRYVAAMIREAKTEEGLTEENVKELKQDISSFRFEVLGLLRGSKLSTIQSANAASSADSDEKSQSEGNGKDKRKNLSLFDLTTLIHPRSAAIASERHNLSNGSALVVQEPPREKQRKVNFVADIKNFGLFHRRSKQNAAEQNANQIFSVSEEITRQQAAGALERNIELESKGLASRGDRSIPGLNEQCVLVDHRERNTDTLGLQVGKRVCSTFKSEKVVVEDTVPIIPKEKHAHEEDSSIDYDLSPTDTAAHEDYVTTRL
Nature of the test: mouse TRPC4 channel inhibitors, dose response, cell-based, HEK293 TRPC4/mu-opioid, Fluo-4 calcium (AID 434942).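 Also: potency of inhibitors blocking the TRPC4 calcium response.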

What is called GI50 is the concentration that inhibits growth by half. In general, IC50 refers to the concentration that inhibits the measured activity by half. Usually AC50 stands for the concentration giving half of the maximal activity seen. By EC50 is commonly meant the concentration needed to bring the measured effect to its halfway point.

The source made the active and inactive calls. A value given as a limit tells only on which side of the number the result lay.

Induced myeloid leukemia cell differentiation protein Mcl-1, sequence (Q07820 whole entry): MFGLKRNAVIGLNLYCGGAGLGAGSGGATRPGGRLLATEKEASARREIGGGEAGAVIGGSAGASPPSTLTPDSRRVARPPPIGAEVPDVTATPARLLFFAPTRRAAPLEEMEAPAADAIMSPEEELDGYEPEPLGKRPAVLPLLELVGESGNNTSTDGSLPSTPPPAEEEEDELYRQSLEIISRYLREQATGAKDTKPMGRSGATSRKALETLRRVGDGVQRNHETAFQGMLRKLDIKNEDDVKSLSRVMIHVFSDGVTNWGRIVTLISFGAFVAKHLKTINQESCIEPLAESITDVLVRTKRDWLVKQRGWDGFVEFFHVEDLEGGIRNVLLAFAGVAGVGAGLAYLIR
Genome polyprotein, sequence (P29990 2492-3391 limits assumed): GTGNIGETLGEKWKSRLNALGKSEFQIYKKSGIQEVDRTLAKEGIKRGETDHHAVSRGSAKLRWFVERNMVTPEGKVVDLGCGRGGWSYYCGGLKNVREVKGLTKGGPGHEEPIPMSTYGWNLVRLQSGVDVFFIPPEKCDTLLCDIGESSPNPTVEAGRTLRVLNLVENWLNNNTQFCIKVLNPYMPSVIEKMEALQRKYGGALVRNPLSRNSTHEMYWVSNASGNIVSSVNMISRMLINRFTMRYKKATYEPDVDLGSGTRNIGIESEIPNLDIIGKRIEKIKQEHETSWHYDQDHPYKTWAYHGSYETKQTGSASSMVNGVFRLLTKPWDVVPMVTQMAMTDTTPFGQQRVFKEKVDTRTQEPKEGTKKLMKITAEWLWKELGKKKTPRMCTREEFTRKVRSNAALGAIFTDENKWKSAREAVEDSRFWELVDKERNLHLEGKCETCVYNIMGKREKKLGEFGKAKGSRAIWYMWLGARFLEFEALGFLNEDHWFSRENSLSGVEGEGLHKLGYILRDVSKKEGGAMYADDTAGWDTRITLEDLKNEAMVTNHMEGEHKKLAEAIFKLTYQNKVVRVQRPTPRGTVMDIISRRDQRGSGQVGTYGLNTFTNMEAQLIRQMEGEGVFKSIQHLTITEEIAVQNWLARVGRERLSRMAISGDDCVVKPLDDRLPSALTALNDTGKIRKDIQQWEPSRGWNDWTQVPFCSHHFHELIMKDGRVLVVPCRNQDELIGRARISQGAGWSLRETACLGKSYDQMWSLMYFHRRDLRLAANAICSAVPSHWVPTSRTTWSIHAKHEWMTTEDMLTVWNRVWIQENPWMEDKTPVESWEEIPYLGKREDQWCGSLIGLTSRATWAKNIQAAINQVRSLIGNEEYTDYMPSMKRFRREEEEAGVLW

Consider `COc1cccc2c1C(=O)c1c(O)c3c(c(O)c1C2=O)C[C@@](O)(C(C)=O)C[C@@H]3OC1CC(N(C)C)C(O)C(C)O1` (some centres undefined), for which the GI50 with P388/ADR, with SN12K1 and in the test on P388 was 0.01 µM (active) throughout.
As for `CN(C)C(=O)OCOC(=O)N(C)C`, the figures for the GI50 in the test with P388/ADR, in the test with SN12K1 and in the test with P388 were > 100 µM (inactive), > 100 µM (inactive) and 66.8 µM (inactive), respectively.
Regarding `CCOc1ccc(NC(=O)CSCC(=O)O)cc1`, the IC50 at Leucine aminopeptidase was 9.94 µM (active).
As to `COc1cc([C@@H]2c3cc4c(c(O)c3C[C@H]3COC(=O)[C@@H]32)OCO4)cc(OC)c1OC` [BETA-PELTATIN A], the GI50 in the test on P388/ADR and with P388 was 0.015 µM (active) throughout.
As to `CC1=NN(c2ccccc2)C(=O)/C1=C\c1ccc(Oc2ccc([N+](=O)[O-])cc2[N+](=O)[O-])cc1`, the AC50 in test [1] is 3.66 µM (active). The EC50 on Protein RecA was 5.33 µM (active). Further, on Genome polyprotein, the IC50 is 19.3 µM (active).
Regarding `COc1cc(C2c3cc4c(cc3[C@@H](Nc3ccc5c(c3)OCO5)C3COC(=O)[C@H]23)OCO4)cc(OC)c1O` (some centres undefined), the GI50 in the test with P388/ADR was 0.0548 µM (active); in the test with SN12K1 it was < 0.0414 µM (active); with P388, < 0.01 µM (active).
Take `CC1CCN(S(=O)(=O)c2ccc(NC(=O)CSc3ncccc3C(=O)O)cc2)CC1`: at Leucine aminopeptidase, the IC50 is 9.68 µM (active).
Regarding `Nc1ccc2c(c1)CN1C(=O)c3ccccc3C1=N2` [DANIQUIDONE], the GI50 in the test with P388/ADR is 24.8 µM (inactive); with SN12K1, 23.6 µM (inactive); with P388, 4.36 µM (inactive).
Consider `Cc1[nH]c2ccccc2c1/C=C/c1nc2ccccc2c(=O)[nH]1`, for which the IC50 in test [2] is 5.55 µM (active).
`COc1ccc(CNc2nc3nc(-c4ccccc4)cc(O)n3n2)cc1OC`: the IC50 on Leucine aminopeptidase was 24.2 µM (active).
Turning to `O=C(NC1CN2CCC1CC2)c1cc(Cl)c([N+](=O)[O-])c2nc[nH]c12` (centres undefined), the EC50 was 16.3 µM (active) in [3] and 12.1 µM (active) in [4]. Also, in test [5], the AC50 is 41.6 µM (active).
`Cc1sccc1/C=N/NC(=O)c1cccc2ccccc12`: the IC50 in [2] is given as 21.1 µM (not active).
Regarding `c1ccc2c(c1)SP1Sc3ccccc3P21` (centres undefined), the figures for the GI50 in the test on P388/ADR, with SN12K1 and in the test on P388 were 28.2 µM (inactive), 56.5 µM (inactive) and 54.2 µM (inactive), respectively.
On to `CC(/C=C1\SC(=S)N(C(C(=O)O)C(C)C)C1=O)=C\c1ccccc1` (centres undefined), for which the EC50 in test [6] is 5.96 µM (active). For the same compound, at Genome polyprotein, the IC50 was 34.3 µM (active).
`CCc1ccc(NC(=O)C2CCCCC2C(=O)O)cc1` (centres undefined): at Leucine aminopeptidase, the IC50 was 12.1 µM (active).
With `CC1(C)OC2CC(=O)OCC23C1CC(=O)C1(C)C3CCC2(C)C(c3ccoc3)OC(=O)C3OC321` (centres undefined), the GI50 was > 125 µM (inactive) in the test with P388/ADR, 119 µM (inactive) in the test with SN12K1 and > 39.5 µM (inactive) in the test with P388.

For the origin of these results see ChEMBL document CHEMBL1201862, “PubChem BioAssay data set” (2004).
